Measured values from PubChem BioAssay (NCI).
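GI50 is the concentration that inhibits growth by half. The concentration for full growth arrest is given as TGI.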

Key:
Assay in all cases: inhibition of tumour cell growth, NCI panel, 384-well format
[1] = system: NCI-H460 NSCLC
[2] = system: HCC-2998 colon
[3] = system: DU-145 prostate
[4] = system: A549 NSCLC
[5] = system: HS 578T breast
[6] = system: A498 renal
[7] = system: EKVX NSCLC
[8] = system: ACHN renal
[9] = system: OVCAR-3 ovarian
[10] = system: SW-620 colon
[11] = system: MDA-MB-435 melanoma
[12] = system: COLO 205 colon
[13] = system: SN12C renal
[14] = system: T-47D breast
[15] = system: CCRF-CEM leukemia
[16] = system: CAKI-1 renal
[17] = system: NCI-H226 lung
[18] = system: SK-OV-3 ovarian
[19] = system: HOP-92 NSCLC
[20] = system: MCF7 breast
[21] = system: 786-0 renal
[22] = system: NCI-H23 lung
[23] = system: RPMI-8226 leukemia
[24] = system: OVCAR-5 ovarian
[25] = system: OVCAR-8 ovarian
[26] = system: SK-MEL-5 melanoma
[27] = system: IGROV1 ovarian
[28] = system: SF-295 CNS
[29] = system: MDA-MB-468 breast
[30] = system: HOP-62 NSCLC
[31] = system: SF-539 CNS
[32] = system: SF-268 CNS
[33] = system: HL-60(TB) leukemia
[34] = system: NCI-H522 lung
[35] = system: HT29 colon
[36] = system: MDA-MB-231 breast
[37] = system: KM12 colon
[38] = system: SNB-19 CNS
[39] = system: BT-549 breast
[40] = system: UACC-257 melanoma
[41] = system: HCT-15 colon
[42] = system: RXF 393 renal
[43] = system: SNB-75 CNS
[44] = system: M14 melanoma
[45] = system: MOLT-4 leukemia
[46] = system: SR leukemia
[47] = system: NCI/ADR-RES ovarian
[48] = system: PC-3 prostate
[49] = system: MALME-3M melanoma
[50] = system: U251 glioblastoma
[51] = system: SK-MEL-2 melanoma
[52] = system: UACC-62 melanoma
[53] = system: SK-MEL-28 melanoma
[54] = system: NCI-H322M lung
[55] = system: OVCAR-4 ovarian
[56] = system: TK-10 renal

## Cc1[nH]c(/C=C2\C(=O)Nc3ccccc32)c(C)c1CCC(=O)O
[1]
  GI50: 17.6 µM
  TGI: 34.2 µM
[2]
  GI50: 24.1 µM
  TGI: 75.3 µM
[3]
  GI50: 35.4 µM
  TGI: > 100 µM
[4]
  GI50: 29.2 µM
  TGI: 84.7 µM
[5]
  GI50: 22.1 µM
  TGI: 78.7 µM
[6]
  GI50: 29 µM
  TGI: > 100 µM
[7]
  GI50: 17.6 µM
  TGI: 52.7 µM
[8]
  GI50: 24.6 µM
  TGI: 68.4 µM
[9]
  GI50: 27.4 µM
  TGI: 89 µM
[10]
  GI50: 19.6 µM
  TGI: 41.4 µM
[11]
  GI50: 21.3 µM
  TGI: 51.4 µM
[12]
  GI50: 22.8 µM
  TGI: 38.7 µM
[13]
  GI50: 27.7 µM
  TGI: 89.3 µM
[14]
  GI50: 53.7 µM
  TGI: > 100 µM
[15]
  GI50: 18.1 µM
  TGI: 34.4 µM
[16]
  GI50: 15.1 µM
  TGI: 40.3 µM
[17]
  GI50: 15.3 µM
  TGI: 34.4 µM
[18]
  GI50: 14.3 µM
  TGI: 38.7 µM
[19]
  GI50: 19.8 µM
  TGI: 43.3 µM
[20]
  GI50: 39.9 µM
  TGI: > 100 µM
[21]
  GI50: 52 µM
  TGI: > 100 µM
[22]
  GI50: 16.6 µM
  TGI: 40.1 µM
[23]
  GI50: 16.2 µM
  TGI: 30.5 µM
[24]
  GI50: 20.2 µM
  TGI: 55.3 µM
[25]
  GI50: 32 µM
  TGI: > 100 µM
[26]
  GI50: 17.2 µM
  TGI: 36 µM
[27]
  GI50: 25.6 µM
  TGI: 86.5 µM
[28]
  GI50: > 100 µM
  TGI: > 100 µM
[29]
  GI50: 16.3 µM
  TGI: 32.6 µM
[30]
  GI50: 42.4 µM
  TGI: > 100 µM
[31]
  GI50: 13.1 µM
  TGI: 45.4 µM
[32]
  GI50: 24.5 µM
  TGI: 73.9 µM
[33]
  GI50: 23.9 µM
  TGI: 39.2 µM
[34]
  GI50: 21.2 µM
  TGI: 62.1 µM
[35]
  GI50: 26 µM
  TGI: 67.6 µM
[36]
  GI50: 16.5 µM
  TGI: 53 µM
[37]
  GI50: 4.33 µM
  TGI: 52.9 µM
[38]
  GI50: 61.7 µM
  TGI: > 100 µM
[39]
  GI50: 18 µM
  TGI: 42.3 µM
[40]
  GI50: 17.7 µM
  TGI: 47.8 µM
[41]
  GI50: 25.3 µM
  TGI: 59.6 µM
[42]
  GI50: 56 µM
  TGI: > 100 µM
[43]
  GI50: 11.7 µM
  TGI: > 100 µM
[44]
  GI50: 15.1 µM
  TGI: 33.9 µM
[45]
  GI50: 16.3 µM
  TGI: 30.3 µM
[46]
  GI50: 19.1 µM
  TGI: 33.3 µM
[47]
  GI50: 31.9 µM
  TGI: > 100 µM
[48]
  GI50: 24.6 µM
  TGI: 81.9 µM
[49]
  GI50: 5.47 µM
  TGI: 23.1 µM
[50]
  GI50: 35 µM
  TGI: > 100 µM
[51]
  GI50: 24 µM
  TGI: 41.7 µM
[52]
  GI50: 25.9 µM
  TGI: 70.3 µM
[53]
  GI50: 23.1 µM
  TGI: 52.6 µM
[54]
  GI50: 38.4 µM
  TGI: > 100 µM
[55]
  GI50: 22.6 µM
  TGI: > 100 µM
[56]
  GI50: 23.2 µM
  TGI: 59.3 µM
